Measured values published in US9241488B2, “Azole derivative, method for producing azole derivative, and intermediate compound” (KUREHA CORPORATION, priority 2011, dated 2016).
Like-named read-outs stand apart in the source and are kept apart here.

Columns and labels:
[1] = system: Wheat fusarium blight (Fusarium graminearum); assay type: cell-based
[2] = system: Barley loose smut (Ustilago nuda); test: Anti-bacterial effect on various microorganisms (plate medium), U.n; assay type: cell-based
[3] = system: Wheat Septoria nodorum blotch microorganism (Phaeosphaeria nodorum); test: Anti-bacterial effect on various microorganisms (plate medium), P.n; assay type: cell-based
[4] = system: Cucumber fusarium wilt (Fusarium oxysporum); test: Anti-bacterial effect on various microorganisms (plate medium), F.c; assay type: cell-based
[5] = system: Gray mold (Botritis cinerea); test: Anti-bacterial effect on various microorganisms (plate medium), B.c; assay type: cell-based
[6] = system: wheat leaf blight-causing microorganisms; test: Anti-bacterial effect on wheat leaf blight-causing microorganisms (PDA plate, mycelial growth inhibition); assay type: cell-based, Septoria tritici; conditions: 1.25 mg/L in PDA plate medium, 25° C., 14 days
Procedure: In Test Examples, an anti-bacterial effect of a compound in accordance with the present invention on the wheat leaf blight-causing microorganisms was tested, and was compared with the anti-bacterial effect of a comparative compound (1).
A dimethyl sulfoxide solution (0.6 ml) containing a compound in accordance with the present invention was added to a PDA medium (potato dextrose agar medium) (60 ml) having about 60° C., and the resultant mixture was mixed thoroughly in a 100-ml conical flask. The mixture was poured into a dish, and was solidified. […]
On the other hand, a subject microorganism previously cultured on a plate medium was cut out with use of a cork borer whose diameter was 4 mm, and the wheat leaf blight-causing microorganism on the plate medium thus cut out was inoculated to the chemical-containing plate medium described above. After such inoculation, the chemical-containing plate medium was incubated at 25° C. for 14 days, and then diameters of its flora were measured. A % mycelial growth inhibition was calculated with use of the formula. R=100(dc−dt)/dc (where R=% mycelial extension inhibition, dc=flora diameter in untreated plate, dt=flora diameter in treated plate)
The results obtained as described above were evaluated on a five-point scale according to the following criteria.
• 5: % Mycerial growth inhibition of 80% or higher • 4: % Mycerial growth inhibition of less than 80 to 60% or higher • 3: % Mycerial growth inhibition of less than 60 to 40% or higher • 2: % Mycerial growth inhibition of less than 40 to 20% or higher • 1: % Mycerial growth inhibition of less than 20%

[7] = system: Wheat pink snow mold (Microdochium nivale); test: Anti-bacterial effect on various microorganisms (plate medium), M.n; assay type: cell-based
[8] = system: Rice bakanae disease (Giberella fujikuroi); test: Anti-bacterial effect on various microorganisms (plate medium), G.f; assay type: cell-based
[9] = system: Alternaria blotch (Alternaria alternata); test: Anti-bacterial effect on various microorganisms (plate medium), A.m; assay type: cell-based
[10] = system: Wheat eye spot (Pseudocercoporella herpotrichoides); test: Anti-bacterial effect on various microorganisms (plate medium), P.h; assay type: cell-based
[11] = system: Barley leaf blotch (Rhynchosporium secalis); test: Anti-bacterial effect on various microorganisms (plate medium), R. sec; assay type: cell-based
[12] = system: wheat-brown-rust-causing microorganisms; test: Controlling effect on wheat brown rust (spray, pot test); assay type: in vivo, Puccinia recondita; conditions: 1 mg/L sprayed at 1,000 L/ha, wheat NORIN No. 61, 9 to 14 days after inoculation
Procedure: Onto a wheat plant (cultivar: NORIN No. 61) grown to the two-leaf stage with use of a square plastic pot (6 cm×6 cm), a wettable formulation such as Formulation Example 1 which was diluted and suspended in water at a concentration of 1 mg/L was sprayed at a rate of 1,000 L/ha. The sprayed leaves were air-dried, and inoculated with spore suspension of wheat-brown-rust-causing microorganisms (adjusted at 200 spores/vision, […] was added at 60 ppm) by spraying, and kept at 25° C. and a high humidity for 48 hours. Thereafter, the plant was kept in a greenhouse. Nine to fourteen days after inoculation, the wheat brown rust lesion degree was evaluated. The protective value was calculated by the following equation. Protective value (%)=(1-mean lesion degree in sprayed plot/mean lesion degree in unsprayed plot)×100 [table] [table]

[13] = system: Sclerotinia rot (Sclerotinia sclerotiorum); test: Anti-bacterial effect on various microorganisms (plate medium), S.s; assay type: cell-based
[14] = system: Rice bacterial seeding blight (Rhizopus oryzae); test: Anti-bacterial effect on various microorganisms (plate medium), R.o; assay type: cell-based
[15] = system: Rice blast (Pyricularia oryzae); assay type: cell-based

Row | SMILES | Growth inhibition grade F.g ([1]; 1.25 mg/L) | Growth inhibition grade F.g ([1]; 5 mg/L) | Growth inhibition grade U.n ([2]; 1.25 mg/L) | Growth inhibition grade U.n ([2]; 5 mg/L) | Growth inhibition grade P.n ([3]; 1.25 mg/L) | Growth inhibition grade P.n ([3]; 5 mg/L) | Growth inhibition grade F.c ([4]; 1.25 mg/L) | Growth inhibition grade F.c ([4]; 5 mg/L) | Growth inhibition grade B.c ([5]; 1.25 mg/L) | Growth inhibition grade B.c ([5]; 5 mg/L) | Growth inhibition grade [6] | Growth inhibition grade M.n ([7]; 1.25 mg/L) | Growth inhibition grade M.n ([7]; 5 mg/L) | Growth inhibition grade G.f ([8]; 1.25 mg/L) | Growth inhibition grade G.f ([8]; 5 mg/L) | Growth inhibition grade A.m ([9]; 1.25 mg/L) | Growth inhibition grade A.m ([9]; 5 mg/L) | Growth inhibition grade P.h ([10]; 1.25 mg/L) | Growth inhibition grade P.h ([10]; 5 mg/L) | Growth inhibition grade R. sec ([11]; 1.25 mg/L) | further results
1 | COC[C@]1(CBr)CC[C@@H](Cc2ccc(F)cc2)[C@]1(O)Cn1cncn1 (racemic) [Compound I-198, (1RS,2RS,5SR)-5-(4-fluorobenzyl)-2-bromomethyl-2-methoxymethyl-1H-[1,2,4]triazole-1-ylmethylcyclopentanol] | 4 (% Mycerial growth inhibition of less than 80 to 60% or higher) | 5 (% Mycerial growth inhibition of 80% or higher) | 4 (% Mycerial growth inhibition of less than 80 to 60% or higher) | 5 (% Mycerial growth inhibition of 80% or higher) | 4 (% Mycerial growth inhibition of less than 80 to 60% or higher) | 5 (% Mycerial growth inhibition of 80% or higher) | 5 (% Mycerial growth inhibition of 80% or higher) | 5 (% Mycerial growth inhibition of 80% or higher) | 5 (% Mycerial growth inhibition of 80% or higher) | 5 (% Mycerial growth inhibition of 80% or higher) | 5 (% Mycerial growth inhibition of 80% or higher) | 4 (% Mycerial growth inhibition of less than 80 to 60% or higher) | 5 (% Mycerial growth inhibition of 80% or higher) | 5 (% Mycerial growth inhibition of 80% or higher) | 5 (% Mycerial growth inhibition of 80% or higher) | 4 (% Mycerial growth inhibition of less than 80 to 60% or higher) | 5 (% Mycerial growth inhibition of 80% or higher) | 4 (% Mycerial growth inhibition of less than 80 to 60% or higher) | 5 (% Mycerial growth inhibition of 80% or higher) | 5 (% Mycerial growth inhibition of 80% or higher) | Growth inhibition grade R. sec ([11]; 5 mg/L): 5 (% Mycerial growth inhibition of 80% or higher); Protective value [12]: 4 (61 to 80); Growth inhibition grade S.s ([13]; 1.25 mg/L): 5 (% Mycerial growth inhibition of 80% or higher); Growth inhibition grade S.s ([13]; 5 mg/L): 5 (% Mycerial growth inhibition of 80% or higher); Growth inhibition grade R.o ([14]; 1.25 mg/L): 5 (% Mycerial growth inhibition of 80% or higher); Growth inhibition grade R.o ([14]; 5 mg/L): 5 (% Mycerial growth inhibition of 80% or higher); Growth inhibition grade P.o ([15]; 1.25 mg/L): 5 (% Mycerial growth inhibition of 80% or higher); Growth inhibition grade P.o ([15]; 5 mg/L): 5 (% Mycerial growth inhibition of 80% or higher)
2 | COC[C@]1(CBr)CC[C@@H](Cc2ccccc2)[C@]1(O)Cn1cncn1 (racemic) [Compound I-203, (1RS,2RS,5SR)-5-benzyl-2-bromomethyl-2-methoxymethyl-1H-[1,2,4]triazole-1-ylmethylcyclopentanol] | 5 (% Mycerial growth inhibition of 80% or higher) | 5 (% Mycerial growth inhibition of 80% or higher) | 5 (% Mycerial growth inhibition of 80% or higher) | 5 (% Mycerial growth inhibition of 80% or higher) | 4 (% Mycerial growth inhibition of less than 80 to 60% or higher) | 5 (% Mycerial growth inhibition of 80% or higher) | 5 (% Mycerial growth inhibition of 80% or higher) | 5 (% Mycerial growth inhibition of 80% or higher) | 5 (% Mycerial growth inhibition of 80% or higher) | 5 (% Mycerial growth inhibition of 80% or higher) | 4 (% Mycerial growth inhibition of less than 80 to 60% or higher) | 5 (% Mycerial growth inhibition of 80% or higher) | 5 (% Mycerial growth inhibition of 80% or higher) | 5 (% Mycerial growth inhibition of 80% or higher) | 5 (% Mycerial growth inhibition of 80% or higher) | 4 (% Mycerial growth inhibition of less than 80 to 60% or higher) | 5 (% Mycerial growth inhibition of 80% or higher) | 4 (% Mycerial growth inhibition of less than 80 to 60% or higher) | 5 (% Mycerial growth inhibition of 80% or higher) | 5 (% Mycerial growth inhibition of 80% or higher) | Growth inhibition grade R. sec ([11]; 5 mg/L): 5 (% Mycerial growth inhibition of 80% or higher); Protective value [12]: 4 (61 to 80); Growth inhibition grade S.s ([13]; 1.25 mg/L): 5 (% Mycerial growth inhibition of 80% or higher); Growth inhibition grade S.s ([13]; 5 mg/L): 5 (% Mycerial growth inhibition of 80% or higher); Growth inhibition grade R.o ([14]; 1.25 mg/L): 4 (% Mycerial growth inhibition of less than 80 to 60% or higher); Growth inhibition grade R.o ([14]; 5 mg/L): 5 (% Mycerial growth inhibition of 80% or higher); Growth inhibition grade P.o ([15]; 1.25 mg/L): 5 (% Mycerial growth inhibition of 80% or higher); Growth inhibition grade P.o ([15]; 5 mg/L): 5 (% Mycerial growth inhibition of 80% or higher)
